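Protocol summary: plate cells (96-well), add compound at 5 concentrations, incubate 48 h, interpolate endpoints linearly. The concentration for 50% growth inhibition is given as GI50.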 Calls of active or inactive are those of the source. Rule as the data show it: active = GI50 up to about 1.1 µM and inactive = higher.
Assays:
Assay in all cases: inhibition of tumour cell growth, NCI panel, 48 h
T47D = tested on: T47D
Malme-3M = tested on: Malme-3M
U-251 = tested on: U-251
786-0 = tested on: 786-0
MDA-MB-435 = tested on: MDA-MB-435
KM12 = tested on: KM12
HL-60 = tested on: HL-60
SR = tested on: SR
M14 = tested on: M14
UO-31 = tested on: UO-31
SK-MEL-5 = tested on: SK-MEL-5
SF-295 = tested on: SF-295
HOP-92 = tested on: HOP-92
NCI-H460 = tested on: NCI-H460
CCRF-CEM = tested on: CCRF-CEM
UACC-62 = tested on: UACC-62
MCF7 = tested on: MCF7
HCT-15 = tested on: HCT-15
ACHN = tested on: ACHN
SW-620 = tested on: SW-620
IGROV-1 = tested on: IGROV-1
OVCAR-3 = tested on: OVCAR-3
SN12C = tested on: SN12C
NCI-H23 = tested on: NCI-H23
SNB-19 = tested on: SNB-19
NCI-H522 = tested on: NCI-H522
HT-29 = tested on: HT-29
HOP-62 = tested on: HOP-62
HCT-116 = tested on: HCT-116
SF-268 = tested on: SF-268
SK-MEL-28 = tested on: SK-MEL-28
SK-MEL-2 = tested on: SK-MEL-2
K562 = tested on: K562
BT-549 = tested on: BT-549
A549 = tested on: A549
SK-OV-3 = tested on: SK-OV-3
MDA-N = tested on: MDA-N
OVCAR-5 = tested on: OVCAR-5
NCI/ADR-RES = tested on: NCI/ADR-RES
SNB-75 = tested on: SNB-75
LOX IMVI = tested on: LOX IMVI
TK-10 = tested on: TK-10
DU-145 = tested on: DU-145
NCI-H226 = tested on: NCI-H226
MOLT-4 = tested on: MOLT-4
OVCAR-4 = tested on: OVCAR-4
RXF 393 = tested on: RXF 393
HCC 2998 = tested on: HCC 2998
RPMI-8226 = tested on: RPMI-8226
Hs-578T = tested on: Hs-578T
MDA-MB-231 = tested on: MDA-MB-231
OVCAR-8 = tested on: OVCAR-8
EKVX = tested on: EKVX
COLO 205 = tested on: COLO 205
PC-3 = tested on: PC-3
SF-539 = tested on: SF-539
CAKI-1 = tested on: CAKI-1
A498 = tested on: A498
UACC-257 = tested on: UACC-257

## CC1(C)OC2[C@@H](CO[C@@]3([C@H]4OC(C)(C)O[C@@H]4CO)OC(C)(C)O[C@@H]23)O1 (stereo partly specified)
T47D
  GI50: > 100 µM (inactive)
Malme-3M
  GI50: > 100 µM (inactive)
U-251
  GI50: > 100 µM (inactive)
786-0
  GI50: > 100 µM (inactive)
MDA-MB-435
  GI50: > 100 µM (inactive)
KM12
  GI50: > 100 µM (inactive)
HL-60
  GI50: > 100 µM (inactive)
SR
  GI50: > 100 µM (inactive)
M14
  GI50: > 100 µM (inactive)
UO-31
  GI50: > 100 µM (inactive)
SK-MEL-5
  GI50: > 100 µM (inactive)
SF-295
  GI50: > 100 µM (inactive)
HOP-92
  GI50: > 100 µM (inactive)
NCI-H460
  GI50: > 100 µM (inactive)
CCRF-CEM
  GI50: > 100 µM (inactive)
UACC-62
  GI50: > 100 µM (inactive)
MCF7
  GI50: > 100 µM (inactive)
HCT-15
  GI50: > 100 µM
ACHN
  GI50: > 100 µM (inactive)
SW-620
  GI50: > 100 µM (inactive)
IGROV-1
  GI50: > 100 µM (inactive)
OVCAR-3
  GI50: > 100 µM (inactive)
SN12C
  GI50: > 100 µM (inactive)
NCI-H23
  GI50: > 100 µM (inactive)
SNB-19
  GI50: > 100 µM (inactive)
NCI-H522
  GI50: > 100 µM (inactive)
HT-29
  GI50: > 100 µM (inactive)
HOP-62
  GI50: > 100 µM (inactive)
HCT-116
  GI50: > 100 µM (inactive)
SF-268
  GI50: > 100 µM (inactive)
SK-MEL-28
  GI50: > 100 µM (inactive)
SK-MEL-2
  GI50: > 100 µM (inactive)
K562
  GI50: > 100 µM (inactive)
BT-549
  GI50: > 100 µM (inactive)
A549
  GI50: > 100 µM (inactive)
SK-OV-3
  GI50: > 100 µM (inactive)
MDA-N
  GI50: > 100 µM (inactive)
OVCAR-5
  GI50: > 100 µM (inactive)
NCI/ADR-RES
  GI50: > 100 µM (inactive)
SNB-75
  GI50: > 100 µM (inactive)
LOX IMVI
  GI50: > 100 µM (inactive)
TK-10
  GI50: > 100 µM (inactive)
DU-145
  GI50: > 100 µM (inactive)
NCI-H226
  GI50: > 100 µM (inactive)
MOLT-4
  GI50: > 100 µM (inactive)
OVCAR-4
  GI50: > 100 µM (inactive)
RXF 393
  GI50: > 100 µM (inactive)
HCC 2998
  GI50: > 100 µM (inactive)
RPMI-8226
  GI50: > 100 µM (inactive)
Hs-578T
  GI50: > 100 µM (inactive)
MDA-MB-231
  GI50: > 100 µM (inactive)
OVCAR-8
  GI50: > 100 µM (inactive)
EKVX
  GI50: > 100 µM (inactive)
COLO 205
  GI50: > 100 µM (inactive)
PC-3
  GI50: > 100 µM (inactive)

## CN1Cc2ccccc2/C=C\c2ccccc21
T47D
  GI50: 50.5 µM (inactive)
Malme-3M
  GI50: 51.4 µM (inactive)
U-251
  GI50: > 100 µM (inactive)
786-0
  GI50: 95.9 µM (inactive)
SF-539
  GI50: > 100 µM (inactive)
MDA-MB-435
  GI50: 39.8 µM (inactive)
KM12
  GI50: 52.4 µM (inactive)
M14
  GI50: 46.8 µM (inactive)
UO-31
  GI50: 80.2 µM (inactive)
SK-MEL-5
  GI50: 40.2 µM (inactive)
SF-295
  GI50: 62.7 µM (inactive)
HOP-92
  GI50: 28 µM (inactive)
CAKI-1
  GI50: 40.9 µM (inactive)
NCI-H460
  GI50: 42.7 µM (inactive)
CCRF-CEM
  GI50: 47.3 µM (inactive)
UACC-62
  GI50: 60.8 µM (inactive)
MCF7
  GI50: 24.7 µM (inactive)
HCT-15
  GI50: 52.4 µM
A498
  GI50: 69.5 µM (inactive)
ACHN
  GI50: > 100 µM (inactive)
SW-620
  GI50: > 100 µM (inactive)
IGROV-1
  GI50: > 100 µM (inactive)
OVCAR-3
  GI50: 47.3 µM (inactive)
SN12C
  GI50: 83.4 µM (inactive)
NCI-H23
  GI50: 62.1 µM (inactive)
SNB-19
  GI50: > 100 µM (inactive)
NCI-H522
  GI50: 37.5 µM (inactive)
HT-29
  GI50: 28.1 µM (inactive)
HOP-62
  GI50: > 100 µM (inactive)
HCT-116
  GI50: 78.2 µM (inactive)
SF-268
  GI50: 39.4 µM (inactive)
SK-MEL-28
  GI50: > 100 µM (inactive)
SK-MEL-2
  GI50: 25.4 µM (inactive)
BT-549
  GI50: 70 µM (inactive)
A549
  GI50: 50.1 µM (inactive)
SK-OV-3
  GI50: 87.3 µM (inactive)
MDA-N
  GI50: 42.2 µM (inactive)
NCI/ADR-RES
  GI50: > 100 µM (inactive)
SNB-75
  GI50: 65.6 µM (inactive)
LOX IMVI
  GI50: 72.9 µM (inactive)
TK-10
  GI50: 70.5 µM (inactive)
UACC-257
  GI50: > 100 µM (inactive)
DU-145
  GI50: > 100 µM (inactive)
NCI-H226
  GI50: > 100 µM (inactive)
OVCAR-4
  GI50: 38.5 µM (inactive)
RXF 393
  GI50: 30.1 µM (inactive)
HCC 2998
  GI50: 47.9 µM (inactive)
RPMI-8226
  GI50: 25.4 µM (inactive)
Hs-578T
  GI50: 44.8 µM (inactive)
MDA-MB-231
  GI50: 96.2 µM (inactive)
OVCAR-8
  GI50: > 100 µM (inactive)
EKVX
  GI50: 30.8 µM (inactive)
COLO 205
  GI50: 44.5 µM (inactive)
PC-3
  GI50: 64 µM (inactive)

## [O-]c1c[n+](CCCC[n+]2cc([O-])on2)no1
T47D
  GI50: > 100 µM (inactive)
Malme-3M
  GI50: > 100 µM (inactive)
U-251
  GI50: > 100 µM (inactive)
786-0
  GI50: > 100 µM (inactive)
SF-539
  GI50: > 100 µM (inactive)
MDA-MB-435
  GI50: > 100 µM (inactive)
KM12
  GI50: > 100 µM (inactive)
HL-60
  GI50: > 100 µM (inactive)
M14
  GI50: > 100 µM (inactive)
UO-31
  GI50: > 100 µM (inactive)
SK-MEL-5
  GI50: > 100 µM (inactive)
SF-295
  GI50: > 100 µM (inactive)
HOP-92
  GI50: > 100 µM (inactive)
CAKI-1
  GI50: > 100 µM (inactive)
NCI-H460
  GI50: > 100 µM (inactive)
CCRF-CEM
  GI50: > 100 µM (inactive)
UACC-62
  GI50: > 100 µM (inactive)
MCF7
  GI50: > 100 µM (inactive)
HCT-15
  GI50: > 100 µM
A498
  GI50: > 100 µM (inactive)
ACHN
  GI50: > 100 µM (inactive)
SW-620
  GI50: > 100 µM (inactive)
IGROV-1
  GI50: > 100 µM (inactive)
OVCAR-3
  GI50: > 100 µM (inactive)
SN12C
  GI50: > 100 µM (inactive)
NCI-H23
  GI50: > 100 µM (inactive)
SNB-19
  GI50: > 100 µM (inactive)
NCI-H522
  GI50: > 100 µM (inactive)
HT-29
  GI50: > 100 µM (inactive)
HOP-62
  GI50: > 100 µM (inactive)
HCT-116
  GI50: > 100 µM (inactive)
SF-268
  GI50: > 100 µM (inactive)
SK-MEL-28
  GI50: > 100 µM (inactive)
SK-MEL-2
  GI50: > 100 µM (inactive)
K562
  GI50: > 100 µM (inactive)
BT-549
  GI50: > 100 µM (inactive)
A549
  GI50: > 100 µM (inactive)
SK-OV-3
  GI50: > 100 µM (inactive)
MDA-N
  GI50: > 100 µM (inactive)
OVCAR-5
  GI50: > 100 µM (inactive)
NCI/ADR-RES
  GI50: > 100 µM (inactive)
SNB-75
  GI50: > 100 µM (inactive)
LOX IMVI
  GI50: > 100 µM (inactive)
TK-10
  GI50: > 100 µM (inactive)
UACC-257
  GI50: > 100 µM (inactive)
DU-145
  GI50: > 100 µM (inactive)
MOLT-4
  GI50: 22.8 µM (inactive)
OVCAR-4
  GI50: > 100 µM (inactive)
RXF 393
  GI50: > 100 µM (inactive)
HCC 2998
  GI50: > 100 µM (inactive)
RPMI-8226
  GI50: > 100 µM (inactive)
Hs-578T
  GI50: > 100 µM (inactive)
MDA-MB-231
  GI50: > 100 µM (inactive)
OVCAR-8
  GI50: > 100 µM (inactive)
EKVX
  GI50: > 100 µM (inactive)
COLO 205
  GI50: > 100 µM (inactive)
PC-3
  GI50: > 100 µM (inactive)

— ChEMBL document CHEMBL1201862, “PubChem BioAssay data set” (2004)
